The values below come from patent US20260297542A1, “HERBICIDE RESISTANT PLANTS” (SYNGENTA CROP PROTECTION AG, priority 2023, published 2026).

The structures appear in SMILES notation. Changes are numbered by the printed parent chain.

Holding throughout (test): E. coli hemG growth inhibition by herbicide, AtPPO1 variant
Holding throughout (type): cell-based
Holding throughout (details): read-out: percentage growth inhibition

One experiment deals with T1, AtPPO1 T461Q (Arabidopsis thaliana, UniProt P55826, T461Q).
T1 construct: expressed in transfected cells; host or cells: E. coli BL21(DE3) hemG, pET24a plasmid
T1 sequence (P55826 35-537 T461Q): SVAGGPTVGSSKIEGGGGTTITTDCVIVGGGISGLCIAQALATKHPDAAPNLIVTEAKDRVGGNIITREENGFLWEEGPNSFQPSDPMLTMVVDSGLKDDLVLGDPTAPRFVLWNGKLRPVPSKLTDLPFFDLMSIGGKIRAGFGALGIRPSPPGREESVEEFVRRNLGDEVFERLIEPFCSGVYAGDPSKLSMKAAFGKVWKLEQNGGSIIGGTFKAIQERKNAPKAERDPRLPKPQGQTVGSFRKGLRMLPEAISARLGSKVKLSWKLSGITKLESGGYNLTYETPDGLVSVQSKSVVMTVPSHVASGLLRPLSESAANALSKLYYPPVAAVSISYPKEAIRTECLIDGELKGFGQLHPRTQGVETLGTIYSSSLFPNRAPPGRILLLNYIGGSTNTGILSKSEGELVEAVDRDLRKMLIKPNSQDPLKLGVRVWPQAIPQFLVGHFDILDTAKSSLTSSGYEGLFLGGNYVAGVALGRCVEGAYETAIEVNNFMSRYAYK
The essentials: (§1)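 Read-out is OD600 at 24 h post inoculation, converted to percent growth inhibition relative to DMSO. The hemG-deleted BL21(DE3) host relied on the plasmid-borne AtPPO1 variant, induced with 0.1 mM IPTG, with 6.25 ppm herbicide 0 or E or 0.78 ppm herbicide B present at 37° C.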

For a further experiment, the target named is T2, AtPPO1 V206G (Arabidopsis thaliana, UniProt P55826, V206G).
T2 construct: expressed in transfected cells; host or cells: E. coli BL21(DE3) hemG (hemG replaced by CmR), pET24a plasmid
T2 sequence (P55826 35-537 V206G): T1 sequence (P55826 35-537 T461Q) with V172G, Q427T
In a few lines: as §1

The next experiment deals with T3, AtPPO1 Y361F (Arabidopsis thaliana, UniProt P55826, Y361F).
T3 construct: expressed in transfected cells; host or cells: E. coli BL21(DE3) hemG (pET24a, T7 promoter)
T3 sequence (P55826 35-537 Y361F): T1 sequence (P55826 35-537 T461Q) with Y327F, Q427T
The essentials:
as §1

The next experiment has as its target T4, AtPPO1 Y362F (Arabidopsis thaliana, UniProt P55826, Y362F).
T4 construct: expressed in transfected cells; host or cells: E. coli BL21(DE3) hemG (pET24a, T7 promoter)
T4 sequence (P55826 35-537 Y362F): T1 sequence (P55826 35-537 T461Q) with Y328F, Q427T
The essentials: as §1

As usually defined, the inhibition is the change of the read-out against control, counted positive when it falls.

Turning to `C#CCN1C(=O)C(F)(F)Oc2cc(F)c(-n3c(=O)n(C)c(=S)n(C)c3=O)cc21` [Herbicide B, trifludimoxazin], the inhibition at 0.78 ppm stood at 31% at AtPPO1 T461Q, 32% at AtPPO1 V206G, 31% at AtPPO1 Y361F and 34% on AtPPO1 Y362F.
In the case of `CCOC(=O)[C@]1(C)CC(c2cc(-n3c(=O)n(C)c(=S)n(C)c3=O)c(F)cc2Cl)=NO1` [Herbicide D, ethyl (5S)-3-[2-chloro-5-(3,5-dimethyl-2,6-dioxo-4-thioxo-1,3,5-triazinan-1-yl)-4-fluoro-phenyl]-5-methyl-4H-isoxazole-5-carboxylate], the inhibition at 6.25 ppm on AtPPO1 T461Q amounted to 22%; at AtPPO1 V206G, 19%; on AtPPO1 Y361F it was 37%; at AtPPO1 Y362F, 13%.
In the same order, the values of `CC(C)N(C)S(=O)(=O)NC(=O)c1cc(-n2c(=O)cc(C(F)(F)F)n(C)c2=O)c(F)cc1Cl` [Herbicide E, saflufenacil] are 35%, 58%, 50% and 43%.
